Source: PubChem BioAssay (NCI)
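Protocol summary: plate cells (96-well), add compound at 5 concentrations, incubate 48 h, interpolate endpoints linearly. Abbreviation: GI50, concentration required for 50% inhibition of growth. At the TGI there is no net growth.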

Columns and labels:
Test in all cases: NCI-60 cell line screen, 48 h
[1] = system: RXF 393 renal
[2] = system: SW-620 colon
[3] = system: CAKI-1 renal
[4] = system: TK-10 renal
[5] = system: SF-268 CNS
[6] = system: M14 melanoma
[7] = system: UACC-62 melanoma
[8] = system: OVCAR-8 ovarian
[9] = system: RPMI-8226 leukemia
[10] = system: PC-3 prostate
[11] = system: SNB-75 CNS

Compound	TGI [1]	TGI [2]	TGI [3]	TGI [4]	TGI [5]	TGI [6]	TGI [7]	TGI [8]	TGI [9]	TGI [10]	TGI [11]	GI50 [4]	GI50 [5]	GI50 [11]	GI50 [1]	GI50 [9]
Cc1cc(O)cc(O)c1C(=O)O[C@]1(C)C(=O)C=C2C=C(/C=C/C(=O)O)OC=C2C1=O	> 100 µM	> 100 µM	> 100 µM	> 100 µM	> 100 µM	> 100 µM	> 100 µM	> 100 µM	> 100 µM	> 100 µM	> 100 µM					
Nc1ccc2ccc(-c3ccc[nH]3)nc2n1	> 100 µM	> 100 µM	> 100 µM	> 100 µM	> 100 µM	> 100 µM		> 100 µM	> 100 µM	> 100 µM	> 100 µM					
O=[N+]([O-])c1ccc(N2N=C(c3ccc4ccccc4c3O)CC2c2ccc(Cl)cc2)c([N+](=O)[O-])c1 (stereo unspecified)	> 100 µM	> 100 µM	> 100 µM	> 100 µM	> 100 µM	> 100 µM	> 100 µM	> 100 µM	63.2 µM	> 100 µM	> 100 µM					
CCCCCN(CCCCC)CC(C)(C)C(O)c1ccc(OC)c2ccccc12 (stereo unspecified)	24.1 µM	27.3 µM	28 µM	25.6 µM	31.5 µM	21.7 µM	25.6 µM	22.9 µM	32.1 µM	26.4 µM	51.9 µM					
CCOC(=O)C(=CN1CCNC1=S)C(=O)OCC	> 100 µM	> 100 µM	> 100 µM	> 100 µM	> 100 µM	> 100 µM	> 100 µM	> 100 µM	> 100 µM	> 100 µM	> 100 µM	> 100 µM	> 100 µM	> 100 µM		
CCCc1nnc2sc(COc3cc(Cl)c(OCc4nn5c(CCC)nnc5s4)cc3Cl)nn12	> 100 µM	> 100 µM	> 100 µM	> 100 µM	> 100 µM	> 100 µM	> 100 µM	> 100 µM	> 100 µM	> 100 µM	45.3 µM					
CC12ON(P(=O)(c3ccccc3)c3ccccc3)C(C)(c3ccccc31)c1ccccc12	> 100 µM	> 100 µM	> 100 µM	> 100 µM	> 100 µM	> 100 µM	> 100 µM	> 100 µM	> 100 µM	> 100 µM	> 100 µM					
O=C1C2=C(SCCS2)C(=O)c2c(Sc3ccc(Cl)cc3)c(Sc3ccc(Cl)cc3)c(Sc3ccc(Cl)cc3)c(Sc3ccc(Cl)cc3)c21	99.4 µM	> 100 µM	> 100 µM		> 100 µM	> 100 µM	52.8 µM	> 100 µM	> 100 µM	> 100 µM	> 100 µM					
c1csc(-c2ccsc2-c2ccsc2)c1	76.3 µM	> 100 µM	> 100 µM	> 100 µM	> 100 µM	> 100 µM	> 100 µM	> 100 µM	> 100 µM	> 100 µM	> 100 µM					
O=C(c1ccc(O)c([N+](=O)[O-])c1)c1ccc(O)c([N+](=O)[O-])c1	> 100 µM	> 100 µM	> 100 µM	> 100 µM	> 100 µM	> 100 µM	> 100 µM	> 100 µM	> 100 µM	> 100 µM	85.7 µM					
CC1=CCC[C@H]2[C@](C)(CC3=CC(=O)C(Sc4ccccc4)=CC3=O)[C@@H](C)CC[C@]12C	34.3 µM	30.5 µM	36.7 µM			33.7 µM	55.3 µM	26.4 µM	46.1 µM	82 µM	54.5 µM				16.1 µM	20.2 µM
COc1ccc(C2SCC(=O)N2NC(=O)C(C)Oc2ccccc2C)cc1 (stereo unspecified)	> 100 µM	> 100 µM	> 100 µM	> 100 µM	> 100 µM	> 100 µM	> 100 µM	> 100 µM	> 100 µM	> 100 µM	> 100 µM					
NC(=Nc1ccccc1)c1ccccc1N	> 100 µM	> 100 µM	> 100 µM	> 100 µM	> 100 µM	> 100 µM	> 100 µM	> 100 µM	> 100 µM	> 100 µM	> 100 µM					
O=C(N/N=C(/COc1ccccc1Cl)N=Cc1ccncc1)c1ccncc1	> 100 µM	> 100 µM	> 100 µM	> 100 µM	> 100 µM	> 100 µM	> 100 µM	> 100 µM	> 100 µM	> 100 µM	98.7 µM					
O=[N+]([O-])c1ccc(O)c(/C=N/c2nc(-c3ccccc3)cs2)c1	45.1 µM	> 100 µM	> 100 µM	> 75.4 µM	78 µM	> 92.1 µM	30.8 µM	68.4 µM	30.9 µM	> 100 µM	75.5 µM					
COC(=O)c1cccc(OC)c1C#Cc1c(OC)cccc1OC	> 100 µM	> 100 µM	> 100 µM	> 100 µM	> 100 µM	> 100 µM	> 100 µM	> 100 µM	> 100 µM	> 100 µM	> 100 µM					
Cc1cc(N(CCC#N)CCC#N)ccc1/C=C1\SC(=S)NC1=O	99.8 µM	> 100 µM	> 100 µM	> 100 µM	> 100 µM	> 100 µM	> 100 µM	> 100 µM	> 100 µM	> 100 µM	93.6 µM					
COC(=O)NC(Cc1ccccc1)NC(C)=O (stereo unspecified)	> 100 µM	> 100 µM	> 100 µM	> 100 µM	> 100 µM	> 100 µM	> 100 µM	> 100 µM	> 100 µM	> 100 µM	> 100 µM					
N=c1oc2ccccc2cc1-c1nc2ccccc2c(=O)[nH]1	> 100 µM	> 100 µM	> 100 µM	> 100 µM	> 100 µM	> 100 µM	> 100 µM	> 100 µM	> 100 µM	> 100 µM	25.3 µM					

Compound	TGI [1]	TGI [2]	TGI [3]	TGI [4]	TGI [5]	TGI [6]	TGI [7]	TGI [8]	TGI [9]	TGI [10]	TGI [11]	GI50 [4]	GI50 [5]	GI50 [11]	GI50 [1]	GI50 [9]
O=C1CS[C@@](CC(c2ccc(Cl)cc2)c2ccc(Cl)cc2)(c2ccc(Cl)cc2)N1	17.6 µM	> 100 µM	> 100 µM	> 100 µM	> 100 µM	> 100 µM	63.1 µM	> 100 µM	35.6 µM	65.5 µM	> 100 µM					
Cc1cc(N2CCCC2)c([N+](=O)[O-])cc1[N+](=O)[O-]	> 100 µM	> 100 µM	> 100 µM		> 100 µM	> 100 µM	> 100 µM	> 100 µM	> 100 µM	> 100 µM	> 100 µM					
CCCCCCCCCCCCCCCCCC(=O)Nc1ccn(C2CCC(COP(=O)(O)O)O2)c(=O)n1 (stereo unspecified)	> 100 µM	> 100 µM	> 100 µM	> 100 µM	> 100 µM	> 100 µM	> 100 µM	> 100 µM	> 100 µM	> 100 µM	> 100 µM					
CCCC(=O)NC(Nc1ccc(F)cc1)(C(F)(F)F)C(F)(F)F	> 100 µM	> 100 µM	> 100 µM	> 100 µM	> 100 µM	> 100 µM	> 100 µM	> 100 µM	> 100 µM	> 100 µM	> 100 µM					
COc1cc2c(cc1OC)[C@@](C)(C(O)C(O)C(C)(C)O)NCC2 (stereo partly specified)	> 100 µM		> 100 µM	> 100 µM	> 100 µM	> 100 µM	> 100 µM	> 100 µM	> 100 µM	> 100 µM	> 100 µM					
CN(C)CC1CCC/C(=C\c2ccc(OC(=O)/C=C/c3ccc(Cl)c(Cl)c3)cc2)C1=O (stereo unspecified)	4.41 µM	7.86 µM	5.81 µM	5.96 µM	36.1 µM	24.9 µM	33.3 µM	28.5 µM	0.62 µM	13.2 µM	68.5 µM					
COc1ccc2c(c1)c1nn(CCN3CCCCC3)c3ccc4c(=O)n(CCN(C)C)c(=O)n2c4c13	< 0.0374 µM	0.0751 µM	0.375 µM	0.44 µM	0.0766 µM	0.109 µM	0.197 µM	0.3 µM	0.0862 µM	0.603 µM	0.0711 µM					
COC1(c2cccs2)c2ccccc2C(OC)(c2cccs2)c2ccccc21 (stereo unspecified)	> 100 µM	> 100 µM	> 100 µM	> 100 µM	> 100 µM	> 100 µM	> 100 µM	> 100 µM	> 100 µM	> 100 µM	> 100 µM					
CC(=O)OCCCCn1cc(Cn2ccc(=O)n(Cc3cn(CCCCOC(C)=O)nn3)c2=O)nn1	> 100 µM	> 100 µM	> 100 µM	> 100 µM	> 100 µM	> 100 µM	> 100 µM	> 100 µM	> 100 µM	> 100 µM	> 100 µM					
COC12C=CC(C=C1C#N)CC2 (stereo unspecified) (tested in a mixture with another compound)	> 100 µM	> 100 µM	> 100 µM	> 100 µM	> 100 µM	> 100 µM	> 100 µM	> 100 µM	> 100 µM	> 100 µM	> 100 µM					
CN(C)CCNC(=O)c1ccc(Cl)c2cc3ccccc3nc12	3.08 µM	6.68 µM	11.6 µM	5.95 µM	5.05 µM	2.62 µM	2.85 µM	6.44 µM	3.9 µM	2.6 µM	5.84 µM					
CCOC(=O)C(=O)CC(=O)C1=C(c2ccccc2OC)CC(c2cccs2)=CC1=O	> 100 µM	> 100 µM	> 100 µM	> 100 µM	> 100 µM	> 100 µM	> 100 µM	> 100 µM	> 100 µM	> 100 µM	49.8 µM					
O=C(O)CNC(=O)c1ccc2cc(C(=O)N3CC(CCl)c4ccc([N+](=O)[O-])cc43)[nH]c2c1 (stereo unspecified)	> 100 µM	> 100 µM	> 100 µM	> 100 µM	> 100 µM	> 100 µM	> 100 µM	> 100 µM	> 100 µM	> 100 µM	> 100 µM					
Cc1ccc(S(=O)(=O)n2ccc(-c3ccc4ccn(S(=O)(=O)c5ccc(C)cc5)c4c3)c2)cc1	39.3 µM	> 100 µM	> 100 µM	> 100 µM	> 100 µM	> 100 µM	> 100 µM	> 100 µM	> 100 µM	> 100 µM	> 100 µM					
COC(=O)C1=CON2C3CC4CC(C3)CC(C4)C12C (stereo unspecified)	> 100 µM	> 100 µM	> 100 µM	> 100 µM	> 100 µM	> 100 µM	> 100 µM	> 100 µM	> 100 µM	> 100 µM	> 100 µM					
CNC(=S)NNc1ncnc2c1ncn2-c1ccc(C)cc1	> 100 µM	> 100 µM	> 100 µM	> 100 µM	> 100 µM	> 100 µM	> 100 µM	> 100 µM	> 100 µM	> 100 µM						
COc1ccc([C@]23CCN4COC[C@@H]([C@H]42)C2(CC3)OCC(C)(C)CO2)cc1OC	> 100 µM	> 100 µM	> 100 µM	> 100 µM	> 100 µM	> 100 µM	> 100 µM	> 100 µM	> 100 µM	> 100 µM	> 100 µM					
CCCN(CCC)C1CCc2c(ccc3cc[nH]c23)C1 (stereo unspecified)	> 100 µM	> 100 µM	> 100 µM	> 100 µM	> 100 µM	32.4 µM	> 100 µM	> 100 µM	> 100 µM	> 100 µM	> 100 µM					
COc1ccc2c(c1)CCN1CCCc3ccccc3C21 (stereo unspecified)	> 100 µM	> 100 µM	> 100 µM	> 100 µM	> 100 µM	37.9 µM	> 100 µM	> 100 µM	58.2 µM	> 100 µM	78.5 µM					
